Key:
Bcl-2 protein = Bcl-2 protein (histag-Bcl-2, UniProtKB P10415) (Homo sapiens (Human), UniProt P10415); test: Inhibition of Bcl-2 by the fluorescence polarisation technique; assay type: binding; conditions: fluorescence polarisation test; incubation for 2 hours; read-out: IC50 (nM) Bcl-2 FP
Description: For partial inhibitors, the percentage fluorescence polarisation inhibition for a given concentration of the test compound is indicated.

[1] = tested on: RS4; 11 leukaemia cell line; test: In vitro cytotoxicity, Microculture Tetrazolium Assay (MTT); assay type: cell-based; conditions: Homo sapiens, 11 cells exposed for 48 hours
Method: The cytotoxicity studies were carried out on the RS4; 11 leukaemia cell line and on H146 small Cell Lung Carcinoma cell line. The cells are distributed onto microplates and exposed to the test compounds for 48 hours. The cell viability is then quantified by a colorimetric assay, the Microculture Tetrazolium Assay (Cancer Res., 1987, 47, 939-942).

Bcl-2 protein, sequence (P10415 whole entry): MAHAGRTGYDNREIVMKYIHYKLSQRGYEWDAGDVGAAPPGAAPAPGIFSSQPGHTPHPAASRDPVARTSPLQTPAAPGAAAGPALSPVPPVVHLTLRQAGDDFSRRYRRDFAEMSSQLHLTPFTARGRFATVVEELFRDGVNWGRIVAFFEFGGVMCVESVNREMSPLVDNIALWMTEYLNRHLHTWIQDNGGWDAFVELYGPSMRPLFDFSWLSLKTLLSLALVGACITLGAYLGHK

Q: Which results are given for `C[C@@H]1Cc2ccccc2CN1C(=O)c1cc2c(cc1-c1cc(C(=O)N(C)c3ccc(O)cc3)c3n1CCCC3)CCN(C(=O)OCc1ccccc1)C2` [Example 93, Benzyl 6-{1-[(4-hydroxyphenyl)(methyl)carbamoyl]-5,6,7,8-tetrahydroindolizin-3-yl}-7-[(3R)-3-methyl-1,2,3,4-tetrahydroisoquinoline-2-carbonyl]-1,2,3,4-tetrahydroisoquinoline-2-carboxylate]?
A: IC50 (Bcl-2 protein): 5.1 nM; IC50 [1]: 11 nM

Q: How did the IC50 (Bcl-2 protein) turn out when `C[C@@H]1Cc2ccccc2CN1C(=O)c1cc2c(cc1-c1cc(C(=O)N(C)c3ccc(O)cc3)c3n1CCCC3)CN(C(=O)Nc1ccccc1)C2` [Example 60, 5-{1-[(4-Hydroxyphenyl)(methyl)carbamoyl]-5,6,7,8-tetrahydroindolizin-3-yl}-6-[(3R)-3-methyl-1,2,3,4-tetrahydroisoquinoline-2-carbonyl]-N-phenyl-2,3-dihydro-1H-isoindole-2-carboxamide] was run?
A: 5.9 nM

Q: What about the IC50 [1] of the same compound?
A: 46 nM

Q: With `C[C@@H]1Cc2ccccc2CN1C(=O)c1cc2c(cc1-c1cc(C(=O)N(C)c3ccc(O)cc3)c3n1CCCC3)CCN(C(=O)N1CCC(c3ccccc3)C1)C2` (stereo partly drawn) [Example 67, N-(4-Hydroxyphenyl)-N-methyl-3-{7-[(3R)-3-methyl-1,2,3,4-tetrahydroisoquinoline-2-carbonyl]-2-(3-phenylpyrrolidine-1-carbonyl)-1,2,3,4-tetrahydroisoquinolin-6-yl}-5,6,7,8-tetrahydroindolizine-1-carboxamide] as the compound, how does the IC50 (Bcl-2 protein) read?
A: 9.4 nM

Q: What about the IC50 [1] of the same compound?
A: 51 nM

Q: Which IC50 (Bcl-2 protein) does the source give for `Cc1c(C(=O)N(C)c2ccc(O)cc2)cc(-c2cc3c(cc2C(=O)N2Cc4ccccc4C[C@H]2CN2CCN(C)CC2)CN(C(=O)C(F)(F)F)CC3)n1C` [Example 783, N-(4-Hydroxyphenyl)-N,1,2-trimethyl-5-{7-[(3S)-3-[(4-methylpiperazin-1-yl)methyl]-1,2,3,4-tetrahydroisoquinoline-2-carbonyl]-2-(trifluoroacetyl)-1,2,3,4-tetrahydroisoquinolin-6-yl}-1H-pyrrole-3-carboxamide] here?
A: 23 nM

Q: What about the IC50 [1] of the same compound?
A: > 150 nM

Q: With `C[C@@H]1Cc2ccccc2CN1C(=O)c1cc2c(cc1-c1cc(C(=O)N(C)c3ccc(O)cc3)c3n1CCCC3)CN(C(=O)Cc1csc(-c3cnccn3)n1)C2` [Example 31, N-(4-Hydroxyphenyl)-N-methyl-3-{6-[(3R)-3-methyl-1,2,3,4-tetrahydroisoquinoline-2-carbonyl]-2-{2-[2-(pyrazin-2-yl)-1,3-thiazol-4-yl]acetyl}-2,3-dihydro-1H-isoindol-5-yl}-5,6,7,8-tetrahydroindolizine-1-carboxamide] as the compound, how does the IC50 (Bcl-2 protein) read?
A: 7.4 nM

Q: What about the IC50 [1] of the same compound?
A: 113 nM

Q: For `Cc1c(C(=O)N(C)c2ccccc2)cc(-c2cc3c(cc2C(=O)N2Cc4ccccc4C[C@H]2C)CN(C(=O)Oc2ccc(N(C)CCN(C)C)cc2)CC3)n1C` [Example 488, 4-{[2-(Dimethylamino)ethyl](methyl)amino}phenyl 6-{1,5-dimethyl-4-[methyl(phenyl)carbamoyl]-1H-pyrrol-2-yl}-7-[(3R)-3-methyl-1,2,3,4-tetrahydroisoquinoline-2-carbonyl]-1,2,3,4-tetrahydroisoquinoline-2-carboxylate], which IC50 (Bcl-2 protein) is on record?
A: 5.3 nM

Q: What about the IC50 [1] of the same compound?
A: 13 nM

Q: For `Cc1c(C(=O)N(C)c2ccc(O)cc2)cc(-c2cc3c(cc2C(=O)N2Cc4ccccc4C[C@H]2CN2CCN(C)CC2)CN(C(=O)Oc2ccccc2)CC3)n1C` [Example 214, Phenyl 6-{4-[(4-hydroxyphenyl)(methyl)carbamoyl]-1,5-dimethyl-1H-pyrrol-2-yl}-7-[(3S)-3-[(4-methylpiperazin-1-yl)methyl]-1,2,3,4-tetrahydroisoquinoline-2-carbonyl]-1,2,3,4-tetrahydroisoquinoline-2-carboxylate], which IC50 (Bcl-2 protein) is on record?
A: 2.7 nM

Q: And the IC50 [1]?
A: 4.1 nM

Reference: patent US9809574B2, “Isoindoline or isoquinoline compounds, a process for their preparation and pharmaceutical compositions containing them” (LES LABORATOIRES SERVIER, priority 2013, dated 2017)
